Assay results taken from the supplement of paper PMC10307832.

Tests used:
Test in all cases: relative viability (nuclei count vs DMSO), 5 days (fraction); higher = more cells survive
Wnt-C59 + AZD7762 = compound: CC1=NC=CC(=C1)C2=CC=C(C=C2)CC(=O)NC3=CC=C(C=C3)C4=CN=CC=C4 [Wnt-C59] + NC(=O)Nc1cc(-c2cccc(F)c2)sc1C(=O)N[C@H]1CCCNC1 [AZD7762] (partner 0.2 µM)
Summary of the method: (§1)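 For relative viability, nuclei counts in treated wells were divided by those in vehicle wells. Lung cancer cell lines had been pin-tool dosed in 1536-well plates the day after seeding and cultured for 5 days, then fixed and stained in one step (final 0.05% Triton X-100, 1% formaldehyde, 1 ug/ml Hoechst) and imaged at 4×. Doses were one drug alone or a fixed anchor-drug dose plus five library-drug doses (not always all listed) in √10 steps, and values are duplicate-plate medians.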

Lapatinib + Navitoclax = compound: CS(=O)(=O)CCNCc1ccc(-c2ccc3ncnc(Nc4ccc(OCc5cccc(F)c5)c(Cl)c4)c3c2)o1 [Lapatinib] + CC1(C)CCC(c2ccc(Cl)cc2)=C(CN2CCN(c3ccc(C(=O)NS(=O)(=O)c4ccc(N[C@H](CCN5CCOCC5)CSc5ccccc5)c(S(=O)(=O)C(F)(F)F)c4)cc3)CC2)C1 [Navitoclax] (partner 0.5 µM)
Summary of the method: as §1

Wnt-C59 + Lapatinib = compound: CC1=NC=CC(=C1)C2=CC=C(C=C2)CC(=O)NC3=CC=C(C=C3)C4=CN=CC=C4 [Wnt-C59] + CS(=O)(=O)CCNCc1ccc(-c2ccc3ncnc(Nc4ccc(OCc5cccc(F)c5)c(Cl)c4)c3c2)o1 [Lapatinib] (partner 2 µM)
Summary of the method: as §1

Wnt-C59 + Decitabine = compound: CC1=NC=CC(=C1)C2=CC=C(C=C2)CC(=O)NC3=CC=C(C=C3)C4=CN=CC=C4 [Wnt-C59] + Nc1ncn([C@H]2C[C@H](O)[C@@H](CO)O2)c(=O)n1 [Decitabine] (partner 2 µM)
Summary of the method: as §1

Cell Line | relative viability (Wnt-C59 + AZD7762; first compound 0.001 µM) | relative viability (Wnt-C59 + AZD7762; first compound 0.01 µM) | relative viability (Wnt-C59 + AZD7762; first compound 0.03162 µM) | relative viability (Wnt-C59 + AZD7762; first compound 0.1 µM) | relative viability (Lapatinib + Navitoclax; first compound 0.06325 µM) | relative viability (Lapatinib + Navitoclax; first compound 0.2 µM) | relative viability (Lapatinib + Navitoclax; first compound 0.6325 µM) | relative viability (Lapatinib + Navitoclax; first compound 2 µM) | relative viability (Wnt-C59 + Lapatinib; first compound 0.001 µM) | relative viability (Wnt-C59 + Lapatinib; first compound 0.01 µM) | relative viability (Wnt-C59 + Lapatinib; first compound 0.03162 µM) | relative viability (Wnt-C59 + Lapatinib; first compound 0.1 µM) | relative viability (Wnt-C59 + Decitabine; first compound 0.001 µM) | relative viability (Wnt-C59 + Decitabine; first compound 0.01 µM) | relative viability (Wnt-C59 + Decitabine; first compound 0.03162 µM) | relative viability (Wnt-C59 + Decitabine; first compound 0.1 µM) | relative viability (Lapatinib + Navitoclax; first compound 0.02 µM)
HCC-15 | 1.28 | 1.34 | 1.29 | 1.06 | 0.679 | 0.704 | 0.635 | 0.599 | 0.859 | 0.91 | 0.774 | 0.823 | 0.621 | 0.607 | 0.661 | 0.606 | –
NCI-H2126 | 1.01 | 1.02 | 1.02 | 1.05 | 0.799 | 0.764 | 0.806 | 0.739 | 0.78 | 0.731 | 0.792 | 0.772 | 0.654 | 0.576 | 0.567 | 0.575 | –
EMC-BAC-2 | 0.941 | 0.975 | 0.897 | 0.975 | 0.984 | 1.09 | 1.02 | 0.968 | 0.828 | 0.755 | 0.849 | 0.794 | 0.932 | 0.914 | 0.89 | 0.89 | 1.05
LXF-289 | 1.06 | 1.07 | 1.09 | 1.07 | 0.928 | 0.957 | 0.94 | 0.85 | 0.925 | 0.903 | 0.891 | 0.849 | 0.396 | 0.369 | 0.446 | 0.386 | 0.901
EPLC-272H | 0.246 | 0.247 | 0.289 | 0.247 | 1.13 | 0.869 | 0.991 | 0.961 | 0.837 | 0.959 | 1.19 | 0.954 | 0.443 | 0.369 | 0.472 | 0.364 | –
NCI-H838 | 0.958 | 0.942 | 0.966 | 0.883 | 1.06 | 1.16 | 1.17 | 1 | 0.901 | 0.924 | 1.07 | 1.08 | 0.459 | 0.509 | 0.453 | 0.402 | 1.13
NCI-H2405 | 0.759 | 0.75 | 0.759 | 0.8 | 0.769 | 0.868 | 0.881 | 0.72 | 1.02 | – | 0.968 | 0.95 | 0.793 | 0.756 | 0.786 | 0.656 | –
LC-2-ad | 0.851 | 0.829 | 0.882 | 0.865 | 0.415 | 0.446 | 0.394 | 0.264 | 1.03 | 0.902 | 0.975 | 0.927 | 0.756 | 0.714 | 0.927 | 0.772 | –
NCI-H3122 | 1.03 | 0.949 | 1.05 | 0.973 | 1 | 1.01 | 0.968 | 1.01 | 0.967 | 1.07 | 0.993 | 1.04 | 0.453 | 0.477 | 0.476 | 0.385 | 1.01
NCI-H727 | 0.776 | 0.528 | 0.598 | 0.687 | 0.341 | 0.401 | 0.4 | 0.32 | 0.891 | 0.761 | 0.787 | 0.966 | 0.91 | 0.902 | 0.901 | 0.997 | 0.388
A-427 | 0.801 | 0.815 | 0.831 | 0.688 | 0.977 | 0.885 | 0.933 | 0.957 | 1.04 | 1.01 | 1.09 | 1.11 | 0.623 | 0.564 | 0.615 | 0.588 | –
201T | 0.713 | 0.697 | 0.598 | 0.606 | 1.22 | 1.16 | 1.22 | 1.2 | 0.985 | 1.04 | 1.03 | 0.991 | 0.861 | 0.824 | 0.902 | 0.812 | 1.16
NCI-H1944 | 0.474 | 0.482 | 0.452 | 0.534 | – | 0.885 | 0.864 | 0.789 | 0.745 | 0.795 | 0.866 | 0.769 | 0.501 | 0.459 | 0.51 | 0.43 | –
NCI-H1975 | 0.72 | 0.653 | 0.724 | 0.773 | 1.09 | 1.04 | 0.918 | 0.867 | 0.816 | 0.863 | 0.934 | 0.882 | 0.419 | 0.385 | 0.423 | 0.38 | 0.993
NCI-H322M | 0.575 | 0.577 | 0.511 | 0.536 | 1.07 | 1.09 | 1.16 | 1.09 | 0.638 | 0.585 | 0.594 | 0.538 | 0.729 | 0.655 | 0.666 | 0.63 | 1.25
NCI-H1793 | 0.467 | 0.408 | 0.536 | 0.532 | – | – | 0.329 | 0.292 | 0.787 | 0.555 | 0.717 | 0.855 | 0.458 | 0.461 | 0.615 | 0.521 | –
RERF-LC-KJ | 0.965 | 0.934 | 1.19 | 0.912 | 0.894 | 0.755 | 0.888 | 0.592 | 0.892 | 0.836 | 0.925 | 0.797 | 0.711 | 0.727 | 0.742 | 0.735 | 0.933
NCI-H23 | 0.244 | 0.257 | 0.243 | 0.296 | – | 0.836 | 0.777 | 0.615 | 1.14 | 1.11 | 1.31 | 0.958 | 0.292 | 0.29 | 0.35 | 0.325 | –
NCI-H2347 | 0.726 | 0.738 | 0.779 | 0.698 | 0.807 | 0.826 | 0.731 | 0.769 | 0.961 | 0.861 | 0.976 | 0.854 | 0.629 | 0.628 | 0.643 | 0.602 | 0.548
LCLC-97TM1 | 0.287 | 0.303 | 0.362 | 0.206 | – | 0.355 | 0.327 | 0.33 | 1.64 | 0.603 | 1.07 | 0.687 | 0.262 | 0.266 | 0.227 | 0.238 | –
